Marks after values point to notes of the source that are not given here.
Tests used:
[1] = known drugs, data from ref. [2]; cited from earlier work
[2] = system: outbred mice; experiment: hot plate test (thermal irritation); type: in vivo; settings: 0.5 mg/kg, intragastric
[3] = system: white outbred mice; experiment: acute toxicity, single intragastric administration, Kerber method
[4] = system: outbred mice; experiment: acetic acid induced writhing test (visceral pain model); type: in vivo; settings: 0.5 mg/kg, intragastric
[5] = system: outbred mice; experiment: as above; type: in vivo
Method: (§1) Analgesic activity of compounds of general formula 1 was studied in the model of visceral pain <<acetic acid induced writhing test>> and thermal irritation test <<hot plate>> in white outbred mice of body mass 20-22 g in groups of 8 animals each after single administration in 1÷20 mg/kg doses.
Acetic acid induced writhing test was performed by intraperitoneal administration of 0.1 ml of 0.75% acetic acid to an animal. Activity was assessed by the quantity of writhing movements during 3 min.
Tests were carried out in outbred male mice with body mass 22-25 g. Experimental groups were formed, with 8 animals in each. <<Acetic writhes>> were produced by intraperitoneal administration of 0.75% acetic acid, 0.1 ml per animal. Test compounds were administered once intragastrically an hour before acetic acid administration. Animals that received only acetic acid were used as control. Activity was assessed by the quantity of writhes during 3 min.

[6] = system: outbred mice; experiment: hot plate test (thermal irritation); type: in vivo
Method: as §1
Hot plate test characterizes thermal stimulus. The animals were placed on a copper plate, T=54° C. The effect was assessed by the duration of stay of the animal on the hot plate before the first vocalization.
Tests were carried out in outbred male mice of body mass 22-25 g. Experimental groups were formed, with 8 animals in each. The animals were placed on a copper hot plate, T=54° C. The effects were assessed by the duration of animal stay on the hot plate before the first <>, in seconds.
Test compounds were administered once intragastrically an hour before the test. Control animals received the corresponding solvent.

[7] = known drugs, data from ref. [2]; cited from earlier work; remark: listed apart in the source
[8] = 1 mg/kg dose, compared with sodium diclofenac 10 mg/kg
[9] = 10 mg/kg, intragastric, (control − exp)/control · 100%
[10] = 10 mg/kg, once intragastrically 1 h before 0.75% acetic acid i.p., writhes during 3 min
[11] = 10 mg/kg, intragastric, (exp − control)/control · 100%
[12] = 10 mg/kg, once intragastrically 1 h before test, plate 54° C, time to first vocalization

## CC(=O)Oc1ccccc1C(=O)O [Acetylsalicylic acid]
[1]
  ED50 in acetic acid induced writhing test: 155 mg/kg

## CC1CCC2C(C1)OC(c1cccs1)CC2(C)O (stereo not shown) [Compound 1a, 4,7-dimethyl-2-(thiophene-2-yl)octahydro-2H-chromene-4-ol]
[2]
  Hot plate, sec. (Agent): 20.3 ± 2.2 s
  Protection, %: 28%
[3]
  acute toxicity classification (in words): moderately toxic
[4]
  Pain reduction, %: 27%
  Writhes, quantity (Agent): 7.4 ± 1.3
[5]; [8]
  analgesic activity in acetic acid induced writhing test (in words): potent analgesic activity
[5]; 1 mg/kg, intragastric
  Pain reduction, %: 71%
  Writhes, quantity (Agent): 2.4 ± 0.8
[5]; 5 mg/kg, intragastric
  Pain reduction, %: 42%
  Writhes, quantity (Agent): 4.9 ± 1.0
[5]; 10 mg/kg dose
  analgesic activity in acetic acid induced writhing test (in words): more effective than sodium diclofenac
[5]; [9]
  Pain reduction, %: 55%
[5]; [10]
  Writhes, quantity (Agent): 4.3 ± 1.1
[5]; 20 mg/kg, intragastric
  Pain reduction, %: 25%
  Writhes, quantity (Agent): 8.3 ± 0.5
[6]; [8]
  analgesic activity in hot plate test (in words): potent analgesic activity
[6]; 1 mg/kg, intragastric
  Hot plate, sec. (Agent): 16.5 ± 1.9 s
  Protection, %: 59%
[6]; 5 mg/kg, intragastric
  Hot plate, sec. (Agent): 16.3 ± 1.6 s
  Protection, %: 57%
[6]; 10 mg/kg dose
  analgesic activity in hot plate test (in words): Reliable analgesic activity
[6]; [11]
  Protection, %: 34%
[6]; [12]
  Hot plate, sec. (Agent): 13.1 ± 1.2 s
[6]; 20 mg/kg, intragastric
  Hot plate, sec. (Agent): 16.0 ± 2.6 s
  Protection, %: 50%

## Cc1ccsc1C1CC(C)(O)C2CCC(C)CC2O1 (stereo not shown) [Compound 1b, 4,7-dimethyl-2-(3-methylthiophene-2-yl)octahydro-2H-chromene-4-ol]
[5]; [9]
  Pain reduction, %: 36*** %
[5]; [10]
  Writhes, quantity (Agent): 7.0 ± 0.6
[6]; [12]
  Hot plate, sec. (Agent): 12.8 ± 1.7 s

## Cc1ccc(C2CC(C)(O)C3CCC(C)CC3O2)s1 (stereo not shown) [Compound 1c, 4,7-dimethyl-2-(5-methylthiophene-2-yl)octahydro-2H-chromene-4-ol]
[5]; [9]
  Pain reduction, %: 39*** %
[5]; [10]
  Writhes, quantity (Agent): 6.6 ± 0.5
[6]; [12]
  Hot plate, sec. (Agent): 17.4 ± 2.4 s

## CC1CCC2C(C1)OC(c1cc(Br)cs1)CC2(C)O (stereo not shown) [Compound 1d, 4,7-dimethyl-2-(4-bromothiophene-2-yl)octahydro-2H-chromene-4-ol]
[5]; 10 mg/kg dose
  analgesic activity in acetic acid induced writhing test (in words): more effective than sodium diclofenac
[5]; [9]
  Pain reduction, %: 63** %
[5]; [10]
  Writhes, quantity (Agent): 3.6 ± 1.5
[6]; [11]
  Protection, %: 39%
[6]; [12]
  Hot plate, sec. (Agent): 13.6 ± 1.7 s

## CC1CCC2C(C1)OC(c1ccc(Br)s1)CC2(C)O (stereo not shown) [Compound 1e, 4,7-dimethyl-2-(5-bromothiophene-2-yl)octahydro-2H-chromene-4-ol]
[5]; [9]
  Pain reduction, %: 34* %
[5]; [10]
  Writhes, quantity (Agent): 6.3 ± 1.2
[6]; [11]
  Protection, %: 18%
[6]; [12]
  Hot plate, sec. (Agent): 11.6 ± 1.0 s

## CC1CCC2C(C1)OC(c1ccc([N+](=O)[O-])s1)CC2(C)O (stereo not shown) [Compound 1f, 4,7-dimethyl-2-(5-nitrothiophene-2-yl)octahydro-2H-chromene-4-ol]
[5]; [9]
  Pain reduction, %: 32* %
[5]; [10]
  Writhes, quantity (Agent): 7.5 ± 1.2
[6]; [11]
  Protection, %: 20%
[6]; [12]
  Hot plate, sec. (Agent): 14.5 ± 1.6 s

## Cc1c(N(C)CS(=O)(=O)O)c(=O)n(-c2ccccc2)n1C [Metamizole]
[7]
  LD50 (acute toxicity): 3300 mg/kg
[1]
  ED50 in acetic acid induced writhing test: 55 mg/kg

## O=C(O)Cc1ccccc1Nc1c(Cl)cccc1Cl [Sodium diclofenac, reference compound]
[1]
  ED50 in acetic acid induced writhing test: 5 mg/kg
[5]; [9]
  Pain reduction, %: 50*** %
[5]; [10]
  Writhes, quantity (Agent): 5.0 ± 1.1
[6]; [11]
  Protection, %: 62** %
[6]; [12]
  Hot plate, sec. (Agent): 15.6 ± 2.4 s

— patent US9999613B2, “2H-chromene derivatives as analgesic agents” (OBSHESTVO S OGRANICHENNOI OTVETSVENNOSTJU “LEOFORS”, priority 2014, dated 2018)
